Reference: PubChem BioAssay AID1918940 (Molecular Pharmacology Branch, DTP, NCI, 2023)
pIC50: −log10 of the molar value.

Tested on: NCI-H211 complex spheroid viability
Test: Anticancer human tumor NCI-H211 cell line growth inhibition [LSD1];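 further: luminescent viability read after seven days of drug exposure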;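 on viability, T/C: 100% = DMSO vehicle control viability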
Details: for pIC50: curve of first compound; for viability, T/C: stronger effect = lower value
Procedure, shortened: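 Complex spheroids of tumor cells with HUVEC and human MSCs, exposed to iadademstat combined with other agents. Each agent tested in half-log steps from near clinical Cmax (else 10 microM top), DMSO ≤0.25%.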

[1] = second compound 0.1 µM, first compound 0.0316 µM
[2] = second compound 0.1 µM, first compound 0.1 µM
[3] = second compound 0.1 µM, first compound 0.316 µM
[4] = second compound 0.1 µM, first compound 1 µM
[5] = second compound 0.1 µM, first compound 3.16 µM
[6] = second compound 0.1 µM, first compound 10 µM
[7] = second compound 0.316 µM, first compound 0.0316 µM
[8] = second compound 0.316 µM, first compound 0.1 µM
[9] = second compound 0.316 µM, first compound 0.316 µM
[10] = second compound 0.316 µM, first compound 1 µM
[11] = second compound 0.316 µM, first compound 3.16 µM
[12] = second compound 0.316 µM, first compound 10 µM
[13] = second compound 1 µM, first compound 0.0316 µM
[14] = second compound 1 µM, first compound 0.1 µM
[15] = second compound 1 µM, first compound 0.316 µM
[16] = second compound 1 µM, first compound 1 µM
[17] = second compound 1 µM, first compound 3.16 µM
[18] = second compound 1 µM, first compound 10 µM
[19] = second compound 3.16 µM, first compound 0.0316 µM
[20] = second compound 3.16 µM, first compound 0.1 µM
[21] = second compound 3.16 µM, first compound 0.316 µM
[22] = second compound 3.16 µM, first compound 1 µM
[23] = second compound 3.16 µM, first compound 3.16 µM
[24] = second compound 3.16 µM, first compound 10 µM
[25] = second compound 10 µM, first compound 0.0316 µM
[26] = second compound 10 µM, first compound 0.1 µM
[27] = second compound 10 µM, first compound 0.316 µM
[28] = second compound 10 µM, first compound 1 µM
[29] = second compound 10 µM, first compound 3.16 µM
[30] = second compound 10 µM, first compound 10 µM
[31] = second compound 0.1 µM, first compound 0.00949 µM
[32] = second compound 0.1 µM, first compound 0.03 µM
[33] = second compound 0.1 µM, first compound 0.0949 µM
[34] = second compound 0.1 µM, first compound 0.3 µM
[35] = second compound 0.316 µM, first compound 0.00949 µM
[36] = second compound 0.316 µM, first compound 0.03 µM
[37] = second compound 0.316 µM, first compound 0.0949 µM
[38] = second compound 0.316 µM, first compound 0.3 µM
[39] = second compound 1 µM, first compound 0.00949 µM
[40] = second compound 1 µM, first compound 0.03 µM
[41] = second compound 1 µM, first compound 0.0949 µM
[42] = second compound 1 µM, first compound 0.3 µM
[43] = second compound 3.16 µM, first compound 0.00949 µM
[44] = second compound 3.16 µM, first compound 0.03 µM
[45] = second compound 3.16 µM, first compound 0.0949 µM
[46] = second compound 3.16 µM, first compound 0.3 µM
[47] = second compound 10 µM, first compound 0.00949 µM
[48] = second compound 10 µM, first compound 0.03 µM
[49] = second compound 10 µM, first compound 0.0949 µM
[50] = second compound 10 µM, first compound 0.3 µM

## CC1(C)CCC(CN2CCN(c3ccc(C(=O)NS(=O)(=O)c4ccc(NCC5CCOCC5)c([N+](=O)[O-])c4)c(Oc4cnc5[nH]ccc5c4)c3)CC2)=C(c2ccc(Cl)cc2)C1 + NC1CCC(NC2CC2c2ccccc2)CC1
Second compound 0.1 µM
  pIC50: 5.24
Second compound 0.316 µM
  pIC50: 5.24
Second compound 1 µM
  pIC50: < 5.00
Second compound 3.16 µM
  pIC50: > 7.50
Second compound 10 µM
  pIC50: > 7.50
[1]
  viability, T/C: 55.3%
[2]
  viability, T/C: 61.6%
[3]
  viability, T/C: 73.5%
[4]
  viability, T/C: 102%
[5]
  viability, T/C: 86.2%
[6]
  viability, T/C: 26.8%
[7]
  viability, T/C: 64.8%
[8]
  viability, T/C: 60.5%
[9]
  viability, T/C: 71.2%
[10]
  viability, T/C: 84.1%
[11]
  viability, T/C: 101%
[12]
  viability, T/C: 26%
[13]
  viability, T/C: 48.6%
[14]
  viability, T/C: 59%
[15]
  viability, T/C: 57.6%
[16]
  viability, T/C: 81.3%
[17]
  viability, T/C: 93.5%
[18]
  viability, T/C: 24.7%
[19]
  viability, T/C: 41.9%
[20]
  viability, T/C: 44.4%
[21]
  viability, T/C: 57.9%
[22]
  viability, T/C: 75.1%
[23]
  viability, T/C: 88.4%
[24]
  viability, T/C: 21.1%
[25]
  viability, T/C: 25.1%
[26]
  viability, T/C: 24.9%
[27]
  viability, T/C: 30%
[28]
  viability, T/C: 33.8%
[29]
  viability, T/C: 52.6%
[30]
  viability, T/C: 19.8%

## CC1COCCN1c1cc(C2(S(C)(=N)=O)CC2)nc(-c2ccnc3[nH]ccc23)n1 (stereo not given) + NC1CCC(NC2CC2c2ccccc2)CC1
Second compound 0.1 µM
  pIC50: 6.48
Second compound 0.316 µM
  pIC50: 6.74
Second compound 1 µM
  pIC50: 6.53
Second compound 3.16 µM
  pIC50: 6.73
Second compound 10 µM
  pIC50: > 7.50
[1]
  viability, T/C: 67.7%
[2]
  viability, T/C: 64.1%
[3]
  viability, T/C: 51.6%
[4]
  viability, T/C: 16.1%
[5]
  viability, T/C: 3.34%
[6]
  viability, T/C: 2.31%
[7]
  viability, T/C: 79.6%
[8]
  viability, T/C: 63%
[9]
  viability, T/C: 38.7%
[10]
  viability, T/C: 13.6%
[11]
  viability, T/C: 3.19%
[12]
  viability, T/C: 2.33%
[13]
  viability, T/C: 66.4%
[14]
  viability, T/C: 67.5%
[15]
  viability, T/C: 48.4%
[16]
  viability, T/C: 16.4%
[17]
  viability, T/C: 3.53%
[18]
  viability, T/C: 2.09%
[19]
  viability, T/C: 66.5%
[20]
  viability, T/C: 55.5%
[21]
  viability, T/C: 44.5%
[22]
  viability, T/C: 17.2%
[23]
  viability, T/C: 2.59%
[24]
  viability, T/C: 1.55%
[25]
  viability, T/C: 40.9%
[26]
  viability, T/C: 39%
[27]
  viability, T/C: 25.4%
[28]
  viability, T/C: 9.13%
[29]
  viability, T/C: 1.75%
[30]
  viability, T/C: 1.04%

## CCN(c1cc(-c2ccc(CN3CCOCC3)cc2)cc(C(=O)NCc2c(C)cc(C)[nH]c2=O)c1C)C1CCOCC1 + NC1CCC(NC2CC2c2ccccc2)CC1
Second compound 0.1 µM
  pIC50: < 5.52
Second compound 0.316 µM
  pIC50: < 5.52
Second compound 1 µM
  pIC50: < 5.52
Second compound 3.16 µM
  pIC50: 5.52
Second compound 10 µM
  pIC50: > 8.02
[31]
  viability, T/C: 76%
[32]
  viability, T/C: 60.9%
[33]
  viability, T/C: 66.9%
[34]
  viability, T/C: 50.1%
Second compound 0.1 µM, first compound 0.949 µM
  viability, T/C: 56.8%
Second compound 0.1 µM, first compound 3 µM
  viability, T/C: 64.2%
[35]
  viability, T/C: 66.3%
[36]
  viability, T/C: 68.5%
[37]
  viability, T/C: 72.2%
[38]
  viability, T/C: 59.9%
Second compound 0.316 µM, first compound 0.949 µM
  viability, T/C: 55.1%
Second compound 0.316 µM, first compound 3 µM
  viability, T/C: 60%
[39]
  viability, T/C: 60.3%
[40]
  viability, T/C: 63.8%
[41]
  viability, T/C: 55.4%
[42]
  viability, T/C: 63.7%
Second compound 1 µM, first compound 0.949 µM
  viability, T/C: 58.3%
Second compound 1 µM, first compound 3 µM
  viability, T/C: 59.1%
[43]
  viability, T/C: 60%
[44]
  viability, T/C: 48.4%
[45]
  viability, T/C: 54.3%
[46]
  viability, T/C: 49.9%
Second compound 3.16 µM, first compound 0.949 µM
  viability, T/C: 48.7%
Second compound 3.16 µM, first compound 3 µM
  viability, T/C: 54.9%
[47]
  viability, T/C: 40.4%
[48]
  viability, T/C: 33.3%
[49]
  viability, T/C: 30.8%
[50]
  viability, T/C: 26%
Second compound 10 µM, first compound 0.949 µM
  viability, T/C: 21.1%
Second compound 10 µM, first compound 3 µM
  viability, T/C: 23.7%

## Nc1ncn(C2CC(O)C(CO)S2)c(=O)n1 (stereo not given) + NC1CCC(NC2CC2c2ccccc2)CC1
Second compound 0.1 µM
  pIC50: > 9.02
Second compound 0.316 µM
  pIC50: 8.92
Second compound 1 µM
  pIC50: 9.00
Second compound 3.16 µM
  pIC50: > 9.02
Second compound 10 µM
  pIC50: > 9.02
Second compound 0.1 µM, first compound 0.000949 µM
  viability, T/C: 47.8%
Second compound 0.1 µM, first compound 0.003 µM
  viability, T/C: 27.1%
[31]
  viability, T/C: 8.74%
[32]
  viability, T/C: 3.26%
[33]
  viability, T/C: 1.8%
[34]
  viability, T/C: 1.91%
Second compound 0.316 µM, first compound 0.000949 µM
  viability, T/C: 55.8%
Second compound 0.316 µM, first compound 0.003 µM
  viability, T/C: 26.6%
[35]
  viability, T/C: 12.1%
[36]
  viability, T/C: 3.64%
[37]
  viability, T/C: 2.15%
[38]
  viability, T/C: 1.98%
Second compound 1 µM, first compound 0.000949 µM
  viability, T/C: 51.4%
Second compound 1 µM, first compound 0.003 µM
  viability, T/C: 26.6%
[39]
  viability, T/C: 8.75%
[40]
  viability, T/C: 3.07%
[41]
  viability, T/C: 2.09%
[42]
  viability, T/C: 1.41%
Second compound 3.16 µM, first compound 0.000949 µM
  viability, T/C: 47.7%
Second compound 3.16 µM, first compound 0.003 µM
  viability, T/C: 23.7%
[43]
  viability, T/C: 7.85%
[44]
  viability, T/C: 2.42%
[45]
  viability, T/C: 1.84%
[46]
  viability, T/C: 1.65%
Second compound 10 µM, first compound 0.000949 µM
  viability, T/C: 25.3%
Second compound 10 µM, first compound 0.003 µM
  viability, T/C: 9.03%
[47]
  viability, T/C: 3.09%
[48]
  viability, T/C: 1.41%
[49]
  viability, T/C: 0.7%
[50]
  viability, T/C: 0.58%

## O=C(C=Cn1cnc(-c2cc(C(F)(F)F)cc(C(F)(F)F)c2)n1)NNc1cnccn1 + NC1CCC(NC2CC2c2ccccc2)CC1
Second compound 0.1 µM
  pIC50: > 8.50
Second compound 0.316 µM
  pIC50: > 8.50
Second compound 1 µM
  pIC50: > 8.50
Second compound 3.16 µM
  pIC50: > 8.50
Second compound 10 µM
  pIC50: > 8.50
Second compound 0.1 µM, first compound 0.00316 µM
  viability, T/C: 33.4%
Second compound 0.1 µM, first compound 0.01 µM
  viability, T/C: 20.6%
[1]
  viability, T/C: 11.6%
[2]
  viability, T/C: 6.71%
[3]
  viability, T/C: 2.42%
[4]
  viability, T/C: 1.48%
Second compound 0.316 µM, first compound 0.00316 µM
  viability, T/C: 40.1%
Second compound 0.316 µM, first compound 0.01 µM
  viability, T/C: 23.5%
[7]
  viability, T/C: 11.2%
[8]
  viability, T/C: 6.77%
[9]
  viability, T/C: 2.16%
[10]
  viability, T/C: 8.93%
Second compound 1 µM, first compound 0.00316 µM
  viability, T/C: 41.4%
Second compound 1 µM, first compound 0.01 µM
  viability, T/C: 21.7%
[13]
  viability, T/C: 9.68%
[14]
  viability, T/C: 5.65%
[15]
  viability, T/C: 2.43%
[16]
  viability, T/C: 1.5%
Second compound 3.16 µM, first compound 0.00316 µM
  viability, T/C: 32.9%
Second compound 3.16 µM, first compound 0.01 µM
  viability, T/C: 22.1%
[19]
  viability, T/C: 11%
[20]
  viability, T/C: 5.74%
[21]
  viability, T/C: 2.43%
[22]
  viability, T/C: 1.51%
Second compound 10 µM, first compound 0.00316 µM
  viability, T/C: 24.4%
Second compound 10 µM, first compound 0.01 µM
  viability, T/C: 15.7%
[25]
  viability, T/C: 7.59%
[26]
  viability, T/C: 3.68%
[27]
  viability, T/C: 1.66%
[28]
  viability, T/C: 1.3%
